Measurements: publication PMC5564600 (Oncotarget, 2017)

Assays:
Assay in all cases: biochemical
Format in all cases: binding
[1] = molecular target: T1, panel of 442 kinases (Homo sapiens, UniProt O14965); conditions: AURKA; for remaining activity at 1 µM: read-out: % of control at 1 µM
T1 construct: purchased Ambit Biosciences (scanMAXX KINOMEscan)
T1 sequence (O14965 1-403): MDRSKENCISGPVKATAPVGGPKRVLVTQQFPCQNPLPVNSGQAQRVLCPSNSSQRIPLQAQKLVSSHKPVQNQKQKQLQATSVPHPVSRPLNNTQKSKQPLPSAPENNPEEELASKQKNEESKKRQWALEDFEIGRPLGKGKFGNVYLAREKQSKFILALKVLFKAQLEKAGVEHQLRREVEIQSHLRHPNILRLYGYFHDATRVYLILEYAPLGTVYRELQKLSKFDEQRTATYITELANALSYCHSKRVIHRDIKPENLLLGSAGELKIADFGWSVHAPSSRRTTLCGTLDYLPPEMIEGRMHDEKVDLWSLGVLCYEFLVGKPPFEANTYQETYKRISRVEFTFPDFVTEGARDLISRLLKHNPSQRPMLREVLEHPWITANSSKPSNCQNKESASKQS

[2] = molecular target: T2, panel of 442 kinases (Homo sapiens, UniProt P00533, DEL746-750); conditions: EGFR(E746-A750del); for remaining activity at 1 µM: read-out: % of control at 1 µM
T2 construct: purchased Ambit Biosciences (scanMAXX KINOMEscan)
T2 sequence (P00533 with tags, fused parts or gaps DEL746-750): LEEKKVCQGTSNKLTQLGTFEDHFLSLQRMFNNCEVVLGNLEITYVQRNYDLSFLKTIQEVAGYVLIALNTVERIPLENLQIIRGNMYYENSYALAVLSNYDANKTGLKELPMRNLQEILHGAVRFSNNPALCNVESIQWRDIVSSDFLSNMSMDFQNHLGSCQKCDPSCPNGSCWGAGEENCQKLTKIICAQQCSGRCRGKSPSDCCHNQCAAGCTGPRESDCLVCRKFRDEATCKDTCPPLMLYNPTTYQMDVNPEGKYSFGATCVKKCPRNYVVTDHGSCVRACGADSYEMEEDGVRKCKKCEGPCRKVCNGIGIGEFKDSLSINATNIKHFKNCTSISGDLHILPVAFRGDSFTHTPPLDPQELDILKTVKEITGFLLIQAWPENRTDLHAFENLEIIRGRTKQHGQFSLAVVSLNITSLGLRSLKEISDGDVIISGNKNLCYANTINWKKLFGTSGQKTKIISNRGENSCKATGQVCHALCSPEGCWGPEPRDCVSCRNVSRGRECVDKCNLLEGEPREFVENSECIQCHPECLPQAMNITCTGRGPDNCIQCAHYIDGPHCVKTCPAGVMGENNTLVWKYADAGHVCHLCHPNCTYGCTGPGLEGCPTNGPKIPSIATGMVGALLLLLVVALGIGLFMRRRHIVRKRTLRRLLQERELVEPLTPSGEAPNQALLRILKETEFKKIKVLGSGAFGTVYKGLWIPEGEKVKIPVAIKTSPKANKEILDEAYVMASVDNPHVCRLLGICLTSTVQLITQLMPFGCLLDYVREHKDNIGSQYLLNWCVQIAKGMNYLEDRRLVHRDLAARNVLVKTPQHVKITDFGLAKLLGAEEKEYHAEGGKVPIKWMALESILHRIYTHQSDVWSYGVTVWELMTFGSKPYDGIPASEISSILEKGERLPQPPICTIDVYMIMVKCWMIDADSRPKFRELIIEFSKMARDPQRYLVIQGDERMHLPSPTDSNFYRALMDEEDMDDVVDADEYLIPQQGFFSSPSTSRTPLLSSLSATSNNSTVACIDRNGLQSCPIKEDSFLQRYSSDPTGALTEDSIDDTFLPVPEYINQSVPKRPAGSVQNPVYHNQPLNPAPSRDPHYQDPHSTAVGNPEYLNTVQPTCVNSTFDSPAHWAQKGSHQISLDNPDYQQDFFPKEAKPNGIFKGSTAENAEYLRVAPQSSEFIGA

[3] = molecular target: T3, panel of 442 kinases (Homo sapiens, UniProt P06239); conditions: kinase LCK; for remaining activity at 1 µM: read-out: % of control at 1 µM
T3 construct: purchased Ambit Biosciences (scanMAXX KINOMEscan)
T3 sequence (P06239 whole entry): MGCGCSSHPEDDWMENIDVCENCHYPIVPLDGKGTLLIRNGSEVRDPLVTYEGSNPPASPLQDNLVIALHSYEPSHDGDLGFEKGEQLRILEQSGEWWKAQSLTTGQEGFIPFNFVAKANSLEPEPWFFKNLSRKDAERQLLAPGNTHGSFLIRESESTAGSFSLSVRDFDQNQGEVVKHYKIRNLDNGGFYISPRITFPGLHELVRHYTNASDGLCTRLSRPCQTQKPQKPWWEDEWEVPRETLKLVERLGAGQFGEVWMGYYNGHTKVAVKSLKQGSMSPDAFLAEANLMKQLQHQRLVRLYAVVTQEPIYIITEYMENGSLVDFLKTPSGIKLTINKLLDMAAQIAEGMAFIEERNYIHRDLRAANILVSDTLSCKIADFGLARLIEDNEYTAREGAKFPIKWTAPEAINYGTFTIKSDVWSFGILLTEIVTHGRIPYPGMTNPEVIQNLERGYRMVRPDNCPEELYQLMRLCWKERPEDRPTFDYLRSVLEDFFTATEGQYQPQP

[4] = molecular target: T4, panel of 442 kinases (Homo sapiens, UniProt P10721); conditions: kinase KIT; for remaining activity at 1 µM: read-out: % of control at 1 µM
T4 construct: purchased Ambit Biosciences (scanMAXX KINOMEscan)
T4 sequence (P10721 26-976): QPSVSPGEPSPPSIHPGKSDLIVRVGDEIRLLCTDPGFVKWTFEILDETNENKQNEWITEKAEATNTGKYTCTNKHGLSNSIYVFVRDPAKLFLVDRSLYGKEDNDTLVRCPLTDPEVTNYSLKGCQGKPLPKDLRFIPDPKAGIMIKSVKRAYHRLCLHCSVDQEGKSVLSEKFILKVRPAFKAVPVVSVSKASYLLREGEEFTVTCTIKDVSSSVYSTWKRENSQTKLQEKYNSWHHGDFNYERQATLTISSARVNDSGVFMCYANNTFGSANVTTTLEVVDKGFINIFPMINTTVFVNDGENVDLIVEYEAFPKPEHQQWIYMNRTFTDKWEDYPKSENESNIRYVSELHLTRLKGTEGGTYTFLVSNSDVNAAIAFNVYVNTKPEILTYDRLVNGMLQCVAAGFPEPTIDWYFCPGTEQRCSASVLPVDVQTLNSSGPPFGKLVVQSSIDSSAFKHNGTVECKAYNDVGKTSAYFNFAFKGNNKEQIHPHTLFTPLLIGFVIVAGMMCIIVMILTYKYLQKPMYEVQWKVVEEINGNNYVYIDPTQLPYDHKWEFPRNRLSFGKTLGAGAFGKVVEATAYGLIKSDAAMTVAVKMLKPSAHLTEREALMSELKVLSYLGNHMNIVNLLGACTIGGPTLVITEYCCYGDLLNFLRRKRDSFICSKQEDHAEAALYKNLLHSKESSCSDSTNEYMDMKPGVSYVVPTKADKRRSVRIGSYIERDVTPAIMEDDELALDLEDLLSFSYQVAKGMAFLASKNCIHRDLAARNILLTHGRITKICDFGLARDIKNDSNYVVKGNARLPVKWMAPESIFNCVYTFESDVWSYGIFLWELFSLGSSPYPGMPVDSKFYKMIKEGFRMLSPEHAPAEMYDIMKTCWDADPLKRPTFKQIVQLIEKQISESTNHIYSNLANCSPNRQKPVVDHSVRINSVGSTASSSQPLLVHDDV

[5] = molecular target: T5, panel of 442 kinases (Homo sapiens, UniProt P10721, T670I/V559D); conditions: kinase KIT(V559D,T670I); for remaining activity at 1 µM: read-out: % of control at 1 µM
T5 construct: purchased Ambit Biosciences (scanMAXX KINOMEscan)
T5 sequence (P10721 26-976 V559D/T670I): as the sequence (P10721 26-976) above, with V534D, T645I counted along it

[6] = molecular target: T6, panel of 442 kinases (Homo sapiens, UniProt P30530); conditions: AXL; for remaining activity at 1 µM: read-out: % of control at 1 µM
T6 construct: purchased Ambit Biosciences (scanMAXX KINOMEscan)
T6 sequence (P30530 26-894): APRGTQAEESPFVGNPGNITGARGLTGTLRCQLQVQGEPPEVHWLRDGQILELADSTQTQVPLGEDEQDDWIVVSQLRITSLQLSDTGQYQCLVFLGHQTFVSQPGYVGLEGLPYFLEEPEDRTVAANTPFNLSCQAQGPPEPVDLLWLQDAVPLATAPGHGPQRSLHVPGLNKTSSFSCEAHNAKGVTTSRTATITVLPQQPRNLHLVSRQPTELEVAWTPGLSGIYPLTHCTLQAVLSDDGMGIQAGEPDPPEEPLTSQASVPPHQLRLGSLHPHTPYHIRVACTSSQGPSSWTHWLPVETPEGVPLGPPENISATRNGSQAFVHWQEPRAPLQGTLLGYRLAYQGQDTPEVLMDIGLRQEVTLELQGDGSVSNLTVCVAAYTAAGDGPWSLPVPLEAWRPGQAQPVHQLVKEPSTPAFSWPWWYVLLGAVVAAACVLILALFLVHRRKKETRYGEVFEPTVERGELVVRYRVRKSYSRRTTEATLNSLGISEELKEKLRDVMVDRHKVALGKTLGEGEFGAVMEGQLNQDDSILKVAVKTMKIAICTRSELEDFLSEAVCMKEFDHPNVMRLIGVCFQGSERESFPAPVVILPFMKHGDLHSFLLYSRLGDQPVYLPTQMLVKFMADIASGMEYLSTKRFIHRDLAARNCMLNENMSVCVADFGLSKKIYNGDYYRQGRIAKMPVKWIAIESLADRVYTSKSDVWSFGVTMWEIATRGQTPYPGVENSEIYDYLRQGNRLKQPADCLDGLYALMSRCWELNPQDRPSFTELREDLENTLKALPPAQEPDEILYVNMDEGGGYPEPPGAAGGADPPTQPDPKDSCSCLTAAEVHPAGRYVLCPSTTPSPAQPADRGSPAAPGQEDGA

[7] = molecular target: T7, panel of 442 kinases (Homo sapiens, UniProt P49336); conditions: CDK8; for remaining activity at 1 µM: read-out: % of control at 1 µM
T7 construct: purchased Ambit Biosciences (scanMAXX KINOMEscan)
T7 sequence (P49336 whole entry): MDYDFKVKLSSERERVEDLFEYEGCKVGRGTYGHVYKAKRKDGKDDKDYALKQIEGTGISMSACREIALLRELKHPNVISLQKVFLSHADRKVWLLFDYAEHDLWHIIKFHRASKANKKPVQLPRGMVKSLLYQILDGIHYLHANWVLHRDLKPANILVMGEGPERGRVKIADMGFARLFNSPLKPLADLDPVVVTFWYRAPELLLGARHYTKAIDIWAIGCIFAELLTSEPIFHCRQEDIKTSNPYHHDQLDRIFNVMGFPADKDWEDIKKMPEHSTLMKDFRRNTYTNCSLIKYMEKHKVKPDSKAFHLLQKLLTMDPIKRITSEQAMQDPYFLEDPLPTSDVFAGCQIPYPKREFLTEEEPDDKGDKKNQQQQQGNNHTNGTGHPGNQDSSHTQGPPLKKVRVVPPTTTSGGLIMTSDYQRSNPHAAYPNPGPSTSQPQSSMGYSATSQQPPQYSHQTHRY

[8] = molecular target: T8, panel of 442 kinases (Homo sapiens, UniProt P54764); conditions: EPHA4; for remaining activity at 1 µM: read-out: % of control at 1 µM
T8 construct: purchased Ambit Biosciences (scanMAXX KINOMEscan)
T8 sequence (P54764 20-986): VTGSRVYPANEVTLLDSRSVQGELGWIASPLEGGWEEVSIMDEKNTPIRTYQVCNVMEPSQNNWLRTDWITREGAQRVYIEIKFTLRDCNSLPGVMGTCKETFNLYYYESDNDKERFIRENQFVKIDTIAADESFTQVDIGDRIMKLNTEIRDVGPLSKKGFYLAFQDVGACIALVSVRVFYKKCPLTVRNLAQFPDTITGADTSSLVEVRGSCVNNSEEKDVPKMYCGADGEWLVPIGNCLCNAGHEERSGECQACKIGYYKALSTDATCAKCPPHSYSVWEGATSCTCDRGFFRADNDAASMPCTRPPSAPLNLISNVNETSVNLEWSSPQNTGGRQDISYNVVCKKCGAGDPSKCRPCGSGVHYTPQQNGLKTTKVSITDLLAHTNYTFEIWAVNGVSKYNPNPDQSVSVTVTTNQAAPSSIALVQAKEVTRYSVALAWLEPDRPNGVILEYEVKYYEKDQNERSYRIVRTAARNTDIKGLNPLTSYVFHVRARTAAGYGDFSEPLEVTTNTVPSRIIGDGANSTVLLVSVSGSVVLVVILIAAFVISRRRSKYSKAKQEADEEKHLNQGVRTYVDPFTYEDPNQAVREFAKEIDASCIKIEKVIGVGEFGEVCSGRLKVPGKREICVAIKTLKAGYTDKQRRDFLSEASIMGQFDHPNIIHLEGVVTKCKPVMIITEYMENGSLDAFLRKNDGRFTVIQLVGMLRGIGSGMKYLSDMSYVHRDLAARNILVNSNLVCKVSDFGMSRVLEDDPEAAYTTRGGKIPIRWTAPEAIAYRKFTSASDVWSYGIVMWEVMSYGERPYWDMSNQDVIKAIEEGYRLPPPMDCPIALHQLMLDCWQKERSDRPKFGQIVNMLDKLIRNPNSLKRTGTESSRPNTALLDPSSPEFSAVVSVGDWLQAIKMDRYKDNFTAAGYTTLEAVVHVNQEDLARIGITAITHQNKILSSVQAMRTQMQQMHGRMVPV

[9] = molecular target: T9, panel of 442 kinases (Homo sapiens, UniProt Q15208); conditions: kinase NDR1; for remaining activity at 1 µM: read-out: % of control at 1 µM
T9 construct: purchased Ambit Biosciences (scanMAXX KINOMEscan)
T9 sequence (Q15208 whole entry): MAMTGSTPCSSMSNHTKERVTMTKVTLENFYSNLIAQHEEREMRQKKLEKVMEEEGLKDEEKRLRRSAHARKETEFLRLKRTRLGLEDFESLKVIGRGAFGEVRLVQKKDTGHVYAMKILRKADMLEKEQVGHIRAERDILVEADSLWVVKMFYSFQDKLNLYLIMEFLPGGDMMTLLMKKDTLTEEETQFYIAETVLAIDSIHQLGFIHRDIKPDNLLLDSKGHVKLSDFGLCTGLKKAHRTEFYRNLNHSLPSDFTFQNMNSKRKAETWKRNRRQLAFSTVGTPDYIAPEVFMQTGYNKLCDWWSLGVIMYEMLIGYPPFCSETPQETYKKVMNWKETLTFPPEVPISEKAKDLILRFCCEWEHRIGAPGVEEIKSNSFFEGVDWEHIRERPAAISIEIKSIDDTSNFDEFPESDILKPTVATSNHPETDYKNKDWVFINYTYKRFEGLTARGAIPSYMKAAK

[10] = molecular target: T10, panel of 442 kinases (Homo sapiens, UniProt Q8TDC3); conditions: BRSK1; for remaining activity at 1 µM: read-out: % of control at 1 µM
T10 construct: purchased Ambit Biosciences (scanMAXX KINOMEscan)
T10 sequence (Q8TDC3 1-778): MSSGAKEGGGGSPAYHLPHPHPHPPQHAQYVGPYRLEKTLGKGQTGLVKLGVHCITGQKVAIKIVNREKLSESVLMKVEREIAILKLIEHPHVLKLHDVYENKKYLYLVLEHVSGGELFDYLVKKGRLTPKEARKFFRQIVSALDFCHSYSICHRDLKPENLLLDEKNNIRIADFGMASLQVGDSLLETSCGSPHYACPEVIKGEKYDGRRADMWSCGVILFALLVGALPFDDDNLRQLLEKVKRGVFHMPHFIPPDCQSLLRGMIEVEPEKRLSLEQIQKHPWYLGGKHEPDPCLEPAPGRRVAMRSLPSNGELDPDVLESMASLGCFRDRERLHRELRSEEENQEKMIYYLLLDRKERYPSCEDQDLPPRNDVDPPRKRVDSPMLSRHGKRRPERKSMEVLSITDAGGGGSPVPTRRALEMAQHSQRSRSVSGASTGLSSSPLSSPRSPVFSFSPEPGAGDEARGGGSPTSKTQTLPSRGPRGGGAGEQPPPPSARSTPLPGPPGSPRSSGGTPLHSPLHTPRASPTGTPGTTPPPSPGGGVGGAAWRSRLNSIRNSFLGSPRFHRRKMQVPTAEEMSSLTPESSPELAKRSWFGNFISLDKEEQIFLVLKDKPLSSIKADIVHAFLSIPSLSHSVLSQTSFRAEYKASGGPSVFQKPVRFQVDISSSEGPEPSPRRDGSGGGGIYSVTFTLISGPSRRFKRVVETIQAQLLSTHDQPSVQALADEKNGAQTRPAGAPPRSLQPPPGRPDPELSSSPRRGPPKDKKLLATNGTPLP

[11] = 10 µM, read-out: % of control at 10 µM

Row | Compound | remaining activity at 1 µM [1] [%] | remaining activity at 10 µM [1, 11] [%] | remaining activity at 1 µM [2] [%] | remaining activity at 10 µM [2, 11] [%] | remaining activity at 1 µM [3] [%] | remaining activity at 10 µM [3, 11] [%] | remaining activity at 1 µM [4] [%] | remaining activity at 10 µM [4, 11] [%] | remaining activity at 1 µM [5] [%] | remaining activity at 10 µM [5, 11] [%] | remaining activity at 1 µM [6] [%] | remaining activity at 10 µM [6, 11] [%] | remaining activity at 1 µM [7] [%] | remaining activity at 10 µM [7, 11] [%] | remaining activity at 1 µM [8] [%] | remaining activity at 10 µM [8, 11] [%] | remaining activity at 1 µM [9] [%] | remaining activity at 10 µM [9, 11] [%] | remaining activity at 1 µM [10] [%] | remaining activity at 10 µM [10, 11] [%]
1 | Nc1cc(C(F)(F)F)c(-c2cc(N3CCOCC3)nc(N3CCOCC3)n2)cn1 [Buparlisib] | 100 | 91 | 100 | 100 | 100 | 100 | 89 | 66 | 90 | 70 | 89 | 100 | 100 | 100 | 98 | 100 | 100 | 100 | 100 | 100
2 | Cn1c(=O)n(-c2ccc(C(C)(C)C#N)cc2)c2c3cc(-c4cnc5ccccc5c4)ccc3ncc21 [Dactolisib, 2-methyl-2-[4-(3-methyl-2-oxo-8-quinolin-3-yl-2,3-dihydroimidazo[4,5-c]quinolin-1-yl)-phenyl] propionitrile] | 100 | – | 100 | – | 88 | – | 63 | – | 64 | – | 48 | – | 100 | – | 97 | – | 100 | – | 83 | –
3 | COc1ncc(-c2ccc3nccc(-c4ccnnc4)c3c2)cc1NS(=O)(=O)c1ccc(F)cc1F [Omipalisib] | 100 | – | 97 | – | 100 | – | 100 | – | 100 | – | 100 | – | 70 | – | 100 | – | 100 | – | 100 | –
4 | FC(F)c1nc2ccccc2n1-c1nc(N2CCOCC2)nc(N2CCOCC2)n1 [ZSTK474, 2-(difluoromethyl)-1-[4,6-di(4-morpholinyl)-1,3,5-triazin-2-yl]-1H-benzimidazole] | 100 | – | 94 | – | 100 | – | 85 | – | 98 | – | 93 | – | 80 | – | 96 | – | 95 | – | 98 | –
